Results taken from patent publication US6642217B2, “Triterpenes having human antifungal and antiyeast activity” (Naturtek, LLC, priority 2000, dated 2003).

Legend:
[1] = tested on: Trichophyton rubrum; assay: Direct addition method, solid compound in Sabouraud dextrose agar; assay type: cell-based; settings: against Trichophyton rubrum
Description: (§1) Direct addition method. Sabouraud dextrose agar was prepared according to the manufacturer's instructions and 5.0 ml was dispensed in each 100×25 mm tube. The tubes were autoclaved. To each tube containing 5.0 ml of liquid agar at 45° C., 20 mg of solid test compound was added, to give a final concentration of 4 mg/ml. The agar was solidified in slants. The fungal cultures were then innoculated. The slants were incubated at 25-28 ° C. for 10-12 days, and the growth of the fungus was recorded every second day. The results in Table 2 indicate growth at the 12th day of inoculation.

[2] = tested on: Microsporum audouinni; assay: as above; assay type: cell-based, Microsporum audouinii; set-up: key to Fungal growth: +++: Maximum Fungal Growth; ++: Moderate Fungal Growth; +: Minimum Fungal Growth; +/−: Very little Fungal Growth; −: No Fungal Growth; settings: 4 mg/mL of agar; 12th day after inoculation
Summary of the method: (§2)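 Direct-addition agar test: compound (4 mg/ml final, added undissolved to molten Sabouraud dextrose agar) in slants, incubated 25-28° C. with growth noted on day 12.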

[3] = tested on: Pityrosporum ovale; assay: Direct addition into the Pityrosporum agar; assay type: cell-based; set-up: key to Pityrosporum ovale growth: +++: Maximum Growth; ++: Moderate Growth; +: Minimum Growth; +/−: Very Little Growth; −: No Growth; settings: 4 mg/ml in the agar; 18 hours after inoculation
Description: as §1, with “The slants were incubated at 25-28 ° C. for 10-12 days, and the growth of the fungus was recorded every second day. The results in Table 2 indicate growth at the 12th day of inoculation.” left out

[4] = tested on: Epidermophyton floccosum; assay: Direct addition method, solid compound in Sabouraud dextrose agar; assay type: cell-based; set-up: key: +++: Maximum Fungal Growth; ++: Moderate Fungal Growth; +: Minimum Fungal Growth; +/−: Very little Fungal Growth; −: No Fungal Growth; settings: 4 mg/mL of agar; 12th day after inoculation
Summary of the method: as §2

[5] = tested on: Microsporum canis; assay: as above; assay type: cell-based; set-up: key: +++: Maximum Fungal Growth; ++: Moderate Fungal Growth; +: Minimum Fungal Growth; +/−: Very little Fungal Growth; −: No Fungal Growth; settings: 4 mg/mL of agar; 12th day after inoculation
Summary of the method: as §2

[6] = tested on: Pityrosporum ovale; assay: as above; assay type: cell-based; set-up: key: +++: Maximum Fungal Growth; ++: Moderate Fungal Growth; +: Minimum Fungal Growth; +/−: Very little Fungal Growth; −: No Fungal Growth; settings: 4 mg/mL of agar; 12th day after inoculation
Summary of the method: as §2

[7] = tested on: Trichophyton rubrum; assay: as above; assay type: cell-based; set-up: key: +++: Maximum Fungal Growth; ++: Moderate Fungal Growth; +: Minimum Fungal Growth; +/−: Very Little Fungal Growth; −: No Fungal Growth; settings: 4 mg/mL of agar; 12th day after inoculation
Description: as §1

[8] = tested on: Microsporum canis; assay: Agar dilution method, growth on Sabouraud dextrose agar slants; assay type: cell-based; set-up: key: +++: Maximum Fungal Growth; ++: Moderate Fungal Growth; +: Minimum Fungal Growth; +/−: Very little Fungal Growth; −: No Fungal Growth; settings: 12th day after inoculation
Summary of the method: (§3)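 SDA slants containing test compound (added from DMSO solution into 45 °C agar); inoculated with fungal culture; 25-28 °C, 10-12 d; growth read every 2nd day.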

[9] = tested on: Microsporum gypseum; assay: as above; assay type: cell-based; set-up: key: +++: Maximum Fungal Growth; ++: Moderate Fungal Growth; +: Minimum Fungal Growth; +/−: Very little Fungal Growth; −: No Fungal Growth; settings: 12th day after inoculation
Summary of the method: as §3

[10] = tested on: Pityrosporum ovale; assay: as above; assay type: cell-based; set-up: key: +++: Maximum Fungal Growth; ++: Moderate Fungal Growth; +: Minimum Fungal Growth; +/−: Very little Fungal Growth; −: No Fungal Growth; settings: 12th day after inoculation
Summary of the method: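 Readout: fungal growth, noted on alternate days across a 10-12 day incubation at 25-28 °C. Test slants were Sabouraud dextrose agar with compound incorporated from DMSO before solidification.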

[11] = tested on: Trichophyton rubrum; assay: as above; assay type: cell-based; set-up: key: +++: Maximum Fungal Growth; ++: Moderate Fungal Growth; +: Minimum Fungal Growth; +/−: Very little Fungal Growth; −: No Fungal Growth; settings: 12th day after inoculation
Summary of the method: as §3

[12] = tested on: Microsporum audouinni; assay: as above; assay type: cell-based, Microsporum audouinii; set-up: key: +++: Maximum Fungal Growth; ++: Moderate Fungal Growth; +: Minimum Fungal Growth; +/−: Very little Fungal Growth; −: No Fungal Growth; settings: 12th day after inoculation
Summary of the method: as §3

[13] = tested on: Trichophyton tonsuran; assay: as above; assay type: cell-based, Trichophyton tonsurans; set-up: key: +++: Maximum Fungal Growth; ++: Moderate Fungal Growth; +: Minimum Fungal Growth; +/−: Very little Fungal Growth; −: No Fungal Growth; settings: 12th day after inoculation
Summary of the method: as §3

[14] = tested on: Trichophyton mentagrophyte; assay: as above; assay type: cell-based, Trichophyton mentagrophytes; set-up: key to Fungal growth: +++: Maximum Fungal Growth; ++: Moderate Fungal Growth; +: Minimum Fungal Growth; +/−: Very little Fungal Growth; −: No Fungal Growth; settings: 12th day after inoculation
Summary of the method: as §3

[15] = tested on: Epidermophyton floccosum; assay: as above; assay type: cell-based; set-up: key to Fungal growth: +++: Maximum Fungal Growth; ++: Moderate Fungal Growth; +: Minimum Fungal Growth; +/−: Very little Fungal Growth; −: No Fungal Growth; settings: for Fungal growth: 12th day after inoculation
Summary of the method: as §3

[16] = tested on: Epidermophyton floccosum; assay: Summary of anti-fungal assays (direct addition, agar dilution, liquid culture); assay type: cell-based; settings: stated in words (Tables 1a/1b, text to Table 5); listed as betulin-3,28-diphthalate
Description: (§4) This example summarizes the results of various other assays of the anti-fungal activity of betulin derivatives. Table 5 summarizes results using different assay methods—direct addition, agar dilution, and direct addition to liquid culture, as disclosed in the previous three Examples. In some cases, only one type of assay was done with a compound. In other cases, the compound was tested by multiple assays.

[17] = tested on: Microsporum audouinii; assay: as above; assay type: cell-based; settings: stated in words (Tables 1a/1b, text to Table 5)
Description: as §4

[18] = tested on: Microsporum gypseum; assay: as above; assay type: cell-based; settings: stated in words (Tables 1a/1b, text to Table 5)
Description: as §4

[19] = tested on: Trichophyton tonsurans; assay: as above; assay type: cell-based; settings: stated in words (Tables 1a/1b, text to Table 5)
Description: as §4

SMILES: C=C(C)C1CCC2(COC(=O)C(N)C(C)C)CCC3(C)C(CCC4C5(C)CCC(OC(=O)C(N)C(C)C)C(C)(C)C5CCC43C)C12 [Betulin-3,28-di-L-valine]
- best anti-fungal or anti-yeast activity by the direct addition method [1]: against Trichophyton rubrum
- Fungal growth [2]: +
- Pityrosporum ovale growth [3]: +/−
- Fungal growth [4]: −
- Fungal growth [5]: +
- Fungal growth [6]: −
- Fungal growth [7]: +/−

SMILES: C=C(C)[C@@H]1CC[C@]2(COC(=O)c3ccccc3C(=O)O)CC[C@]3(C)[C@H](CC[C@@H]4[C@@]5(C)CC[C@H](OC(=O)c6ccccc6C(=O)O)C(C)(C)[C@@H]5CC[C@]43C)[C@@H]12 [Betulin-3,28-diphthalate]
- Fungal growth ([8]; 125 μg/ml): ++
- Fungal growth ([8]; 250 μg/ml): +
- Fungal growth ([8]; 500 μg/ml): −
- Fungal growth ([8]; 1000 μg/ml): −
- Fungal growth ([9]; 125 μg/ml): ++
- Fungal growth ([9]; 250 μg/ml): +
- Fungal growth ([9]; 500 μg/ml): −
- Fungal growth ([9]; 1000 μg/ml): −
- Fungal growth ([10]; 125 μg/ml): +++
- Fungal growth ([10]; 250 μg/ml): +++
- Fungal growth ([10]; 500 μg/ml): +++
- Fungal growth ([10]; 1000 μg/ml): ++
- Fungal growth ([11]; 125 μg/ml): ++
- Fungal growth ([11]; 250 μg/ml): ++
- Fungal growth ([11]; 500 μg/ml): +
- Fungal growth ([11]; 1000 μg/ml): −
- Fungal growth ([12]; 125 μg/ml): ++
- Fungal growth ([12]; 250 μg/ml): +
- Fungal growth ([12]; 500 μg/ml): −
- Fungal growth ([12]; 1000 μg/ml): −
- Fungal growth ([13]; 125 μg/ml): +++
- Fungal growth ([13]; 250 μg/ml): ++
- Fungal growth ([13]; 500 μg/ml): +/−
- Fungal growth ([13]; 1000 μg/ml): −
- Fungal growth ([14]; 125 μg/ml): ++
- Fungal growth ([14]; 250 μg/ml): +
- Fungal growth ([14]; 500 μg/ml): −
- Fungal growth ([14]; 1000 μg/ml): −
- Fungal growth ([15]; 125 μg/ml): ++
- Fungal growth ([15]; 250 μg/ml): ++
- Fungal growth ([15]; 500 μg/ml): +/−
- Fungal growth ([15]; 1000 μg/ml): −
- best antifungal or anti-yeast activity by the agar dilution method ([15]; against Epidermophyton floccosum): against Epidermophyton floccosum
- Active against Epidermophyton floccosum [16]: against Epidermophyton floccosum
- Active against Microsporum audouinii [17]: Microsporum audouinii
- Active against Microsporum gypseum [18]: Microsporum gypseum
- Active against Trichophyton tonsurans [19]: Trichophyton tonsurans
